# Measured values: patent US6486199B1, “Spiro and dispiro 1,2,4-trioxolane antimalarials” (Medicines for Malaria Venture MMV International Centre …, priority 2001, dated 2002)
# pIC50: −log10 of the molar value. Where “and” joins values, the source holds several entries; their conditions need not be identical. Equal entries are not always repeated. Where two headings read alike, the source gives them in different places. Marks after values point to notes of the source that are not given here.
# Experiments:
# P. berghei [1] = test: 1-day Peters test against P. berghei in vivo; details: 1 day
# [2] = differential scanning calorimetry (DSC), thermal stability; format: physicochemical; details: thermal decomposition
# parasitemia = test: onset of drug action and recrudescence after single oral dose; format: in vivo; details: for duration of action compared with artemether: single 100 mg/kg po; for Recrudescence (>5% parasitemia) occurs on day: single 100 mg/kg po on day +3 post-infection
# Method: The reduction of parasitemia was monitored 12 h after treatment, and the time of recrudescence was assessed by daily blood smears for 14 days, followed by intermittent assessment for up to 30 days.
# [3] = test system: adult schistosomes (49-day-old) of Schistosoma mansoni; test: effect on adult schistosomes (49-day-old) in mice; format: in vivo; details: single 400 mg/kg per os; for TWR (%): total worm reduction rate; for Mean total worm burden: x ± SD
# Method: (§1) Mice were infected with 100 Schistosoma mansoni cercariae on day 49 post-treatment. Each group was treated per os with OZ compounds at a single dose of 400 mg/kg. Untreated mice served as the control. All groups were killed 4 weeks after treatment and the liver and intestine were removed and separated. The liver and intestine were compressed and alive male and female worms could be seen and counted.
# adult S. mansoni = test: activity against adult S. mansoni, treated once at day 49 of infection; format: in vivo; details: OZ05 200 mg/kg p.o., OZ11 100 mg/kg p.o.
# P. berghei [4] = test: 4-day Peters test against P. berghei in vivo; details: 4 day
# [5] = test system: 21-day-old schistosomules of Schistosoma mansoni; test: effect on 21-day-old schistosomules in mice; format: in vivo; details: single 200 mg/kg per os; for FWR (%): female worm reduction rate; for Mean female worm burden: mean ± standard deviation; for TWR (%): total worm reduction rate
# Method: as §1, with “Mice were infected with 100 Schistosoma mansoni cercariae on day 49 post-treatment.” left out, “200” for “400”, “counted. The effect of the compounds was evaluated by mean total and female worm burden.” for “counted.”
# NB2a cell line = test: neurotoxicity against the NB2a cell line; format: cell-based; details: NB2a cell line
# [6] = test system: chloroquine-resistant K1 strain of P. falciparum; test: in vitro screen against chloroquine-resistant K1 strain of P. falciparum; format: cell-based
# [7] = test system: ANKA strain of P. Berghei; test: single dose STI in vivo screen in infected Moro SPF mice; details: for inhibition in vivo at 10 mg/kg / inhibition in vivo at 100 mg/kg: Plasmodium berghei, 72 h
# Schistosoma mansoni = test: treatment of mice infected with Schistosoma mansoni cercaria, six weekly oral doses; format: in vivo; details: 100 mg/kg p.o. on days 7, 14, 21, 28, 35, 42; individual mice
# Excerpt: Mice (MORO SPF female 18-20g) were infected with 90 (±10) cecaria of Schistosoma mansoni subcutaneously.
# [8] = test system: chloroquine-sensitive NF54 strain of P. falciparum; test: in vitro screen against chloroquine-sensitive NF54 strain of P. falciparum; format: cell-based; details: Plasmodium falciparum, NF54, read-out: IC50 (ng/ml) NF54
# [9] = single 100 mg/kg po, survival to day 30 = cure
# [10] = single 100 mg/kg sc, survival to day 30 = cure
Structure (SMILES),P. berghei (1 day) ED50 po (P. berghei [1]; po) [mg/kg],P. berghei (1 day) ED90 po (P. berghei [1]; po) [mg/kg],P. berghei (1 day) ED90 sc (P. berghei [1]; sc),Tm dec. (° C.) [2] [°C],duration of action compared with artemether (parasitemia),Recrudescence (>5% parasitemia) occurs on day (parasitemia) [days],Percentage of dead worm [3],Total dead worm [3],TWR (%) [3] [%],Mean total worm burden [3],activity against adult S. mansoni (adult S. mansoni),P. berghei (4 day) ED50 po (P. berghei [4]) [mg/kg],P. berghei (4 day) ED90 po (P. berghei [4]) [mg/kg],P. berghei (4 day) ED50 sc (P. berghei [4]) [mg/kg],P. berghei (4 day) ED90 sc (P. berghei [4]) [mg/kg],FWR (%) [5] [%],Mean female worm burden [5],TWR (%) [5] [%],"Survival (days) po [7, 9]","Survival (days) sc [7, 10]",also measured
"CC1(C)COC2(CCC3(CC2)OOC2(O3)C3CC4CC(C3)CC2C4)OC1 (centres unmarked) [OZ11, Adamantane-2-spiro-3′-11′,11′-dimethyl-1′,2′,4′,9′,13′-pentaoxadispiro[4.2.5.2]pentadecane]",1.5,2.8,NA/0.87 mg/kg,162.4,longer,10,3.9 (6/156),6,16.2,30.0 ± 1.9^a,showed activity,1.8,3.1,0.5,0.9,84,2.0 ± 1.9^b,85,,,
"O=C1CCC2(CC1)OOC1(O2)C2CC3CC(C2)CC1C3 (centres unmarked) [OZ05, Adamantane-2-spiro-3′-8′-oxo-1′,2′,4′-trioxaspiro[4.5]decane]",3.5,7.0,2.3 mg/kg,156.3,comparable,5,13.4 (31/232),31,0,40.2 ± 13.6,showed activity,1.5,6.1,0.6,1.0,88,1.5 ± 1.0^b,90,10.7 days,30 days,"P. berghei (1 day) ED50 sc (P. berghei [1]; sc): 0.16 mg/kg; pIC50 (NB2a cell line): 4.51; IC50 (ng/ml) K1 ([6]; in vitro, K1 strain): 0.19 ng/mL; antimalarial activity, overall assessment ([7]; overall judgement of in vitro and in vivo data of Table 2): more active; Activity (%) po ([7]; percent reduction in parasitemia day 3 post-infection, single 100 mg/kg po): 100/100%; Activity (%) sc ([7]; percent reduction in parasitemia day 3 post-infection, single 100 mg/kg sc): 100/100%; reduction in parasitaemia (Schistosoma mansoni): 100% and 53%"
"CO[C@H]1O[C@@H]2O[C@@]3(C)CC[C@H]4[C@H](C)CC[C@@H]([C@H]1C)[C@@]24OO3 [Artemether, artemether, reference compound]",,,2.3 mg/kg,,,,,,31.0,,no activity,,,,,,,82.2,14.7/14.7 days,14.7/14.7 days,"ED50 (P. berghei [1]; Plasmodium berghei, 24 h, po, read-out: P. berghei (1 day) ED50 po): 2 mg/kg; ED90 (P. berghei [1]; Plasmodium berghei, 24 h, po, read-out: P. berghei (1 day) ED90 po): 4.3 mg/kg; ED50 (P. berghei [1]; Plasmodium berghei, 24 h, sc, read-out: P. berghei (1 day) ED50 sc): 2.1 mg/kg; IC50 [8]: 0.37 ng/mL; IC50 ([6]; Plasmodium falciparum, K1, read-out: IC50 (ng/ml) K1): 0.5 ng/mL; inhibition in vivo at 10 mg/kg ([7]; percent reduction in parasitemia day 3 post-infection, single 10 mg/kg po, read-out: Activity (%) po): 98.7%; inhibition in vivo at 10 mg/kg ([7]; percent reduction in parasitemia day 3 post-infection, single 10 mg/kg sc, read-out: Activity (%) sc): 100%; inhibition in vivo at 100 mg/kg ([7]; percent reduction in parasitemia day 3 post-infection, single 100 mg/kg po, read-out: Activity (%) po): 100%; inhibition in vivo at 100 mg/kg ([7]; percent reduction in parasitemia day 3 post-infection, single 100 mg/kg sc, read-out: Activity (%) sc): 100%; Survival (days) po ([7]; single 10 mg/kg po): 8.0 days; Survival (days) sc ([7]; single 10 mg/kg sc): 9.0 days"
